Measured values: patent US10220029B2, “Pharmaceutical composition comprising glutarimide derivatives and use thereof in the treatment of eosinophilic diseases” (OBSCHESTVO S ORGANICHENNOI OTVETSTVENNOSTIYU …, priority 2013, dated 2019)
Marks after values point to notes of the source that are not given here.

Columns and labels:
[1] = test system: model of bronchial asthma in guinea pigs; experiment: Severity of bronchospasm in the model of bronchial asthma in guinea pigs; format: in vivo, guinea pig; settings: Experiment No. 1, 10 times, n = 8
Description: (§1) Bronchial asthma in guinea pigs was induced by a standard method [Ricciardolo F L, Nijkamp F, De Rose V, Folkerts G. The guinea pig as an animal model for asthma// Current Drug Targets. 2008 June; 9(6):452-65]. The animals were immunized by one parenteral administration of 0.5 mL of a solution comprising 100 μg/mL ovalbumin (Sigma) and 100 mg/mL aluminium hydroxide. Intact animals received a physiological saline solution in an amount of 0.5 mL.
(§2) On days 29, 30 and 31, hyperactivity of the respiratory airways was provoked by inhalation administration of ovalbumin in ascending concentrations of 0.1, 0.3, and 0.5 mg/mL on days 1, 2, and 3 of the provocation, respectively. The inhalation lasted 5 minutes or until asphyxia symptoms became apparent (fall to one side). On day 32, the animals received a challenging dose of ovalbumin (1 mg/mL) for 5 minutes, while assessing a bronchospastic reaction.
(§3) The studied compounds were administered to the animals once daily every day for 6 or 10 days; the administration was terminated two days before the administration of the challenging dose of antigen.
The bronchospastic reaction was assessed by a change in the rate and depth of the respiratory movements and by the asphyxia symptom such as fall to one side. Spirogram was registered by laboratory experimental equipment (ADInstruments, Australia), using a base recording station (PowerLab 8sp.) and software LabCart. The registration was made using airflow sensors for laboratory animals and a spirograph with an integrated amplifier (ADInstruments).
(§4) The study comprised 3 experiments, wherein the first one was directed to the evaluation of the effect of claimed compounds 1-6 on the cell composition of the BAL, the second and the third experiments were aimed at evaluating the effect of compounds 1 and 2 on the cell composition of the BAL, the cell composition of the blood, and on the bronchospasm severity.

[2] = test system: model of atopic dermatitis in mice; experiment: Response index in DNCB-induced atopic (allopathic) dermatitis in mice; format: in vivo, male Balb/c mice; settings: n = 12
Description: The model of allopathic dermatitis was realized by a standard method [Mechanism of dinitrochlorobenzene-induced dermatitis in mice: role of specific antibodies in pathogenesis//PLoS One. 2009; 4(11)].
On days 0 and 12 of the study, 100 μL of a 2% solution of 1-chloro-2,4-dinitrobenzene (DNCB, Sigma-Aldrich, US) in 95% ethanol was applied to shaved sites in the backs of male Balb/c mice. On day 17 of the study, to the right “studied” ear of the animals, 20 μL of the alcohol solution of 2% DNCB was applied two times with a one-hour interval. The studied compound and the reference preparation, dexamethasone, were administered by the intragastric route once daily on days 8-17 of the study.
On day 18 of the study, the animals were euthanized in a CO2 camera. The weights of the “studied” and “control” ears were measured. A response index (RI) expressed in percentage of a difference in the weights of the “studied” and “control” ears was calculated.

[3] = test system: model of sephadex-induced eosinophilic lung inflammation in rats; experiment: Content of cell elements in BAL in the model of sephadex-induced eosinophilic lung inflammation in rats; format: in vivo, male Wistar rats; settings: Table 8, four times, BAL 48 hours after sephadex, n = 10
Description: The model of sephadex-induced eosinophilic lung inflammation in rats was realized by a standard method [Evaldsson C, Rydén I, Uppugunduri S. Isomaltitol exacerbates neutrophilia but reduces eosinophilia: new insights into the sephadex model of lung inflammation//Int Arch Allergy Immunol. 2011; 154(4):286-94]. Sephadex G-200 (Pharmacia, Sweden) was administered one time by inhalation to male Wistar rats at a dose of 5 mg/kg. The studied compounds were administered to the animals by the intragastric route four times: 24 hours and 1 hour before and 24 hours and 45 hours after administration of sephadex. The reference preparation, budesonide, was administered according to the same scheme, by inhalation at a dose of 0.5 mg/kg. Bronchoalveolar lavage was taken 48 hours after the inhalation of sephadex, and the total lymphocyte count and leukocyte formula in the lavage were determined. The number of rats in a group was 7 to 10.

[4] = test system: model of bronchial asthma in guinea pigs; experiment: Content of cell elements in BAL in the model of bronchial asthma in guinea pigs; format: in vivo, guinea pig
Description: as §1, §2, §3
The bronchoalveolar lavage (BAL) and cardiac cavity blood were derived from the animals 24 hours after administration of the challenging dose. The BAL was collected under anesthesia by lavaging the lungs with 5 mL of a physiological saline solution heated to 37° C. through the trachea, using a syringe dosing device.
The absolute number of cell elements in 1 μL of the lavage (cytosis) was counted in the bronchoalveolar lavage, using the Goryaev camera. Then, the BAL was centrifuged at 200 g for 10 minutes. The residue was used to prepare swabs that were fixed in methanol and stained according to Romanovsky-Giemsa to count endopulmonary cytogram.
as §4

[5] = Table 4, 14 mg/kg, 10 times of administration, n = 9
[6] = Table 5 Experiment No. 1, 0.045 mg/kg, 10 times, n = 8
[7] = Table 5 Experiment No. 1, 0.14 mg/kg, 10 times, n = 8
[8] = Table 5 Experiment No. 1, 14 mg/kg, 10 times, n = 8

O=C1CCCC(=O)N1CCc1cnc[nH]1 [Compound 1, 1-(2-(1H-imidazol-4-yl)ethyl)piperidine-2,6-dione]
The number of animals with moderate bronchospasm (without acute phase, with subacute phase, with breath management) ([1]; 0.045 mg/kg): 1 | The number of animals with moderate bronchospasm (without acute phase, with subacute phase, without breath management) ([1]; 0.045 mg/kg): 2 | The number of animals with severe bronchospasm (in acute and subacute phase) ([1]; 0.045 mg/kg): 0 | The number of animals without bronchospasm ([1]; 0.045 mg/kg): 5 | The number of animals with moderate bronchospasm (without acute phase, with subacute phase, with breath management) ([1]; 0.14 mg/kg): 1 | The number of animals with moderate bronchospasm (without acute phase, with subacute phase, without breath management) ([1]; 0.14 mg/kg): 0 | The number of animals with severe bronchospasm (in acute and subacute phase) ([1]; 0.14 mg/kg): 0 | The number of animals without bronchospasm ([1]; 0.14 mg/kg): 7 | The number of animals with moderate bronchospasm (without acute phase, with subacute phase, with breath management) ([1]; 14 mg/kg): 0 | The number of animals with moderate bronchospasm (without acute phase, with subacute phase, without breath management) ([1]; 14 mg/kg): 2 | The number of animals with severe bronchospasm (in acute and subacute phase) ([1]; 14 mg/kg): 1 | The number of animals without bronchospasm ([1]; 14 mg/kg): 5 | Response index (%) ([2]; 0.3 mg/kg intragastric once daily on days 8-17): 74.4 ± 7.3*& % | Response index (%) ([2]; 3 mg/kg intragastric once daily on days 8-17): 69.5 ± 8.2*& % | Response index (%) ([2]; 30 mg/kg intragastric once daily on days 8-17): 69.1 ± 8*& % | Eosinophils, content of cell elements in 1 μL of BAL ([3]; 0.06 mg/kg intragastric): 118 ± 27*& in 1 μL of BAL | Leukocytes, content of cell elements in 1 μL of BAL ([3]; 0.06 mg/kg intragastric): 2500 ± 307 in 1 μL of BAL | Lymphocytes, content of cell elements in 1 μL of BAL ([3]; 0.06 mg/kg intragastric): 128 ± 48 in 1 μL of BAL | Macrophages, content of cell elements in 1 μL of BAL ([3]; 0.06 mg/kg intragastric): 1417 ± 131 in 1 μL of BAL | Neutrophils, content of cell elements in 1 μL of BAL ([3]; 0.06 mg/kg intragastric): 837 ± 231 in 1 μL of BAL | Eosinophils, content of cell elements in 1 μL of BAL ([3]; 0.18 mg/kg intragastric): 174 ± 64*& in 1 μL of BAL | Leukocytes, content of cell elements in 1 μL of BAL ([3]; 0.18 mg/kg intragastric): 2665 ± 455 in 1 μL of BAL | Lymphocytes, content of cell elements in 1 μL of BAL ([3]; 0.18 mg/kg intragastric): 143 ± 54 in 1 μL of BAL | Macrophages, content of cell elements in 1 μL of BAL ([3]; 0.18 mg/kg intragastric): 1661 ± 260 in 1 μL of BAL | Neutrophils, content of cell elements in 1 μL of BAL ([3]; 0.18 mg/kg intragastric): 597 ± 168 in 1 μL of BAL | Eosinophils, content of cell elements in 1 μL of BAL ([3]; 0.54 mg/kg intragastric): 126 ± 43*& in 1 μL of BAL | Leukocytes, content of cell elements in 1 μL of BAL ([3]; 0.54 mg/kg intragastric): 2120 ± 218*& in 1 μL of BAL | Lymphocytes, content of cell elements in 1 μL of BAL ([3]; 0.54 mg/kg intragastric): 196 ± 63 in 1 μL of BAL | Macrophages, content of cell elements in 1 μL of BAL ([3]; 0.54 mg/kg intragastric): 1446 ± 113 in 1 μL of BAL | Neutrophils, content of cell elements in 1 μL of BAL ([3]; 0.54 mg/kg intragastric): 352 ± 135 in 1 μL of BAL | Eosinophils, content of cell elements in 1 μL of BAL ([3]; 1.8 mg/kg intragastric): 129 ± 44*& in 1 μL of BAL | Leukocytes, content of cell elements in 1 μL of BAL ([3]; 1.8 mg/kg intragastric): 1915 ± 250*& in 1 μL of BAL | Lymphocytes, content of cell elements in 1 μL of BAL ([3]; 1.8 mg/kg intragastric): 122 ± 49 in 1 μL of BAL | Macrophages, content of cell elements in 1 μL of BAL ([3]; 1.8 mg/kg intragastric): 1214 ± 130 in 1 μL of BAL | Neutrophils, content of cell elements in 1 μL of BAL ([3]; 1.8 mg/kg intragastric): 451 ± 149 in 1 μL of BAL | Eosinophils, content of cell elements in 1 μL of BAL ([3]; 5.4 mg/kg intragastric): 152 ± 56*& in 1 μL of BAL | Leukocytes, content of cell elements in 1 μL of BAL ([3]; 5.4 mg/kg intragastric): 2340 ± 322 in 1 μL of BAL | Lymphocytes, content of cell elements in 1 μL of BAL ([3]; 5.4 mg/kg intragastric): 170 ± 45 in 1 μL of BAL | Macrophages, content of cell elements in 1 μL of BAL ([3]; 5.4 mg/kg intragastric): 1525 ± 199 in 1 μL of BAL | Neutrophils, content of cell elements in 1 μL of BAL ([3]; 5.4 mg/kg intragastric): 492 ± 129 in 1 μL of BAL | Eosinophils, content of cell elements in 1 μL of BAL ([3]; 18 mg/kg intragastric): 69 ± 22*& in 1 μL of BAL | Leukocytes, content of cell elements in 1 μL of BAL ([3]; 18 mg/kg intragastric): 2135 ± 205*& in 1 μL of BAL | Lymphocytes, content of cell elements in 1 μL of BAL ([3]; 18 mg/kg intragastric): 168 ± 44 in 1 μL of BAL | Macrophages, content of cell elements in 1 μL of BAL ([3]; 18 mg/kg intragastric): 1601 ± 134 in 1 μL of BAL | Neutrophils, content of cell elements in 1 μL of BAL ([3]; 18 mg/kg intragastric): 297 ± 89*& in 1 μL of BAL | Eosinophils in BAL [4, 5]: 0.89 ± 0.23*& 10^9/L | Lymphocytes in BAL [4, 5]: 0.70 ± 0.13* 10^9/L | Monocytes in BAL [4, 5]: 0.35 ± 0.09* 10^9/L | Neutrophils in BAL [4, 5]: 0.36 ± 0.09 10^9/L | Cytosis in BAL [4, 6]: 12.8 ± 0.2* 10^9/L | Eosinophils in BAL [4, 6]: 0.45 ± 0.07*& 10^9/L | Lymphocytes in BAL [4, 6]: 0.10 ± 0.04& 10^9/L | Monocytes in BAL [4, 6]: 0.52 ± 0.092* 10^9/L | Neutrophils in BAL [4, 6]: 0.19 ± 0.08 10^9/L | Cytosis in BAL [4, 7]: 10.5 ± 0.2*& 10^9/L | Eosinophils in BAL [4, 7]: 0.41 ± 0.10*& 10^9/L | Lymphocytes in BAL [4, 7]: 0.13 ± 0.04& 10^9/L | Monocytes in BAL [4, 7]: 0.43 ± 0.076* 10^9/L | Neutrophils in BAL [4, 7]: 0.07 ± 0.01 10^9/L | Cytosis in BAL [4, 8]: 14.6 ± 0.3* 10^9/L | Eosinophils in BAL [4, 8]: 0.45 ± 0.12*& 10^9/L | Lymphocytes in BAL [4, 8]: 0.15 ± 0.026*& 10^9/L | Monocytes in BAL [4, 8]: 0.7 ± 0.16* 10^9/L | Neutrophils in BAL [4, 8]: 0.15 ± 0.03* 10^9/L
